Patent US12097213B2, “Sequential treatment of cancers using 6-thio-dG, checkpoint inhibitors and radiation therapy” (The Board of Regents of the University of Texas System, priority 2020, dated 2024)

Tests used:
tumor-specific T cells = assay: IFN-γ ELISPOT of splenocytes / draining lymph node cells; assay type: in vivo, mouse; conditions: splenocytes re-stimulated with irradiated MC38 tumor cells 48 hrs; 3 mg/kg, days 7, 8, 9
Protocol: IFN-γ enzyme-linked immunosorbent spot assay (ELISPOT). MC38 tumors were injected subcutaneously on the right flank of C57BL/6. For 6-thio-dG single treatment, 3 mg/kg 6-thio-dG was intraperitoneally given on days 7, 8 and 9; for PD-L1 blockade combination therapy in MC38 model, 3 mg/kg 6-thio-dG was given on day 10 and day 11, 50 μg PD-L1 was intraperitoneally injected on day 11. 7 days after last treatment, tumor draining lymphoid and spleen from tumor-bearing mice were collected and single-cell suspension was prepared. Irradiated MC38 tumor cells and control LLC tumor cells were used to re-stimulate the tumor-specific T cells. 1.5×10^5 draining lymph nodes cells or splenocytes and 7.5×10^4 irradiated tumor cells were co-cultured for 48 hrs, and ELISPOT assay was performed using the IFN-γ ELISPOT kit (BD Bioscience) according to the manufacturer's instructions. IFN-γ spots were enumerated with the CTL-ImmunoSpot® S6 Analyzer (Cellular Technology Limited).

[1] = test system: mouse BMDC co-cultured with HCT116; assay: Cytosolic DNA extraction and qPCR in DCs co-cultured with HCT116; assay type: cell-based; conditions: HCT116 pretreated with 500 nM 6-thio-dG; co-culture 4 hrs
Protocol: Cytosolic DNA extraction and quantitative real-time PCR. HCT 116 cells were pretreated with 500 nM 6-thio-dG for 4 hrs. Then drug was washed out, tumor cells were continued to culture for 72 hrs and harvest on the same day as BMDC harvest. Then HCT116 cells were mixed 1:1 with 1×10^6 BMDC for 4 hrs. BMDC was purified and divided into two equal aliquots.
One aliquot was extracted for total genomic DNA with Purelink Genomic DNA kit (Invitrogen) and served as normalization control. The other aliquot was resuspended in 100 μL cytosolic extract buffer containing 150 mM NaCl, 50 mM HEPES and […] digitonin (Sigma) and incubated for 10 mins at RT for plasma membrane permeabilization (West et al., 2015). Then cells were centrifuged to pellet intact cells. The cytosolic supernatants were collected and centrifuged at 12000 g for 10 mins to pellet the remaining cellular debris. Then cytosolic DNA was extracted with Purelink Genomic DNA kit (Invitrogen). Quantitative PCR was performed on both whole-cell extracts and cytosolic fractions using human DNA primers and mouse DNA primers (Xu et al., 2017).
Quantitative real-time PCR. […]

tumor cells = assay: Autophagy in tumor cells (data not shown); assay type: cell-based; conditions: after 6-thio-dG treatment
[2] = test system: bone marrow derived DCs (BMDCs); assay: In vitro co-culture of BMDC with 6-thio-dG pretreated tumor cells and T cells; assay type: cell-based, mouse
Protocol: In vitro co-culture of bone marrow dendritic cells (BMDC) and T cells. Single-cell suspensions of bone marrow (BM) cells were collected from tibias and femurs of C57BL/6 mice. The BM cells were placed in 10 cm dish and cultured with complete RPMI 1640 medium containing 20 ng/mL recombinant mouse GM-CSF (BioLegend). Fresh medium with was added into the culture on day 3 and day 6. The BMDCs were harvested Day 7. CD8+ T cells were isolated from lymph nodes and spleens of OT-1 transgenic mice with a negative CD8+ T cell isolation kit (Stemcell). MC38-OVA cells pretreated with 200 nM 6-thio-dG for 4 hrs. Then the drug was washed out, tumor cells were continued to culture for 72 hrs and were harvested on the same day as BMDC harvest. Then MC38-OVA cells were co-cultured with BMDC for overnight. Supernatant was collected for IFN-β ELISA test (PBL). BMDCs were sorted with CD11c+ positive selection kit (Stemcell) and co-cultured with OT-1 CD8+ T cells for 48 hrs. Supernatants were collected and IFN-γ was measured by cytometric bead array assay (BD Biosciences).
Quantitative real-time PCR. Real-time PCR was performed with SsoAdvanced™ Universal SYBR® Green Supermix (Bio-Rad) according to the manufacturer's instructions with different primer sets (human MT-CO1, forward primer 5′-[…]-3′ (SEQ ID NO: 3), reverse primer 5′-CGGGGCATTCCG GATAGGCC-3′ (SEQ ID NO: 4); human18s rRNA, forward primer 5′-[…]-3′ (SEQ ID NO: 5), reverse primer 5′-[…]-3′ (SEQ ID NO: 6); mouse IFN-β, forward primer 5′-ATGAGTGGTGGTTGCAGGC-3′ (SEQ ID NO: 7), reverse primer 5′-[…]-3′ (SEQ ID NO: 8); mouse GAPDH, forward primer 5′-CATCAAGAA GGTGGTGAAGC-3′ (SEQ ID NO: 9), reverse primer 5′-[…]-3′) (SEQ ID NO: 10) mouse GAPDH was used as the internal control. 2^−ΔΔCt method was used to calculate relative expression changes.

[3] = test system: CT26 murine colon cancer cells; assay: Cell viability assay (CellTiter 96), CT26; assay type: cell-based, mouse
Protocol: Cell viability assay. For determination of IC50 with cell proliferation assays, murine and human cancer cell lines were screened with 6-thio-dG with a 2-fold dilution series in 8 different points in 96-well plates. Cells were plated 24 hrs prior to the addition of drug, incubated for 4-5 days, and assayed using CellTiter 96® Aqueous One Solution Cell Proliferation Assay according to the manufacturer's instructions (Promega). Cell number per well ranged from 1,000 to 10,000 cells per well inversely proportional to doubling times. Dose response curves were generated and IC50s calculated using Graphpad Prism. All samples were analyzed in triplicate and standard deviations are from 2-3 independent experiments.

MC38 cells = assay: Colony formation assay; assay type: cell-based, mouse; conditions: 0.5 μM 6-thio-dG every three days for 13 days
Protocol: Colony formation assay. MC38 cells were seeded in three different concentrations on six well plates (1000-4000 cells/well) and treated with various drug concentrations every 3-4 days. Following 13 days treatment, cells were fixed and stained with 6% glutaraldehyde (Fisher Scientific) plus 0.5% crystal violet (Sigma) solution. After washing with tap water, cells were air-dried and images captured using a G-BOX (Syngene, model: G-BOX F3).

Structure (SMILES): Nc1nc2c(ncn2[C@H]2C[C@H](O)[C@@H](CO)O2)c(=S)[nH]1 [6-thio-dG, 6-thio-2′-deoxyguanosine]
- tumor-specific cytotoxic T cell responses (IFN-γ producing T cells) (tumor-specific T cells): enhanced
- human DNAs (MT-CO1 and human 18S) in the cytosol of mouse DCs [1]: increase
- activation of autophagy in tumor cells (tumor cells): did not see activation of autophagy
- IFN-γ production by OT-1 CD8+ T cells (cross-priming capacity of DCs) ([2]; MC38-OVA pretreated with 200 nM 6-thio-dG, DC/T cell co-culture 48 hrs, CBA): significant increase
- IFN-β in DCs, WT vs Tmem173KO ([2]; MC38 pretreated with 200 nM 6-thio-dG, qPCR): induced IFN-β production in DCs in a STING-dependent manner
- IFN-β production by DCs ([2]; co-culture with tumor cells pretreated with 200 nM 6-thio-dG, ELISA): significantly increased
- cell viability in vitro [3]: cell viability inhibition
- cells forming colonies (MC38 cells): less than 50%
